# Test results as given in PubChem BioAssay (NCI).
#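 Assay format: 96-well plates, 48-hour exposure. TGI marks complete inhibition of growth.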
# Legend:
# Experiment in all cases: NCI tumour cell line growth inhibition, 48 h
# [1] = tested on: SW-620 colon
# [2] = tested on: HL-60(TB) leukemia
# [3] = tested on: SK-MEL-28 melanoma
# [4] = tested on: CCRF-CEM leukemia
# [5] = tested on: A549 NSCLC
# [6] = tested on: HOP-62 NSCLC
# [7] = tested on: HCT-15 colon
# [8] = tested on: MDA-N
# [9] = tested on: CAKI-1 renal
# [10] = tested on: HOP-92 NSCLC
# [11] = tested on: SK-OV-3 ovarian
# [12] = tested on: OVCAR-4 ovarian
# [13] = tested on: SR leukemia
# [14] = tested on: RXF 393 renal
# [15] = tested on: U251 CNS
# [16] = tested on: NCI-H23 lung
# [17] = tested on: DU-145 prostate
# [18] = tested on: MCF7 breast
# [19] = tested on: T-47D breast
# [20] = tested on: M14 melanoma
# [21] = tested on: HCC-2998 colon
# [22] = tested on: SNB-75 CNS
# [23] = tested on: SF-268 CNS
# [24] = tested on: RPMI-8226 leukemia
# [25] = tested on: PC-3 prostate
# [26] = tested on: OVCAR-5 ovarian
# [27] = tested on: UACC-257 melanoma
# [28] = tested on: HCT-116 colon
# [29] = tested on: IGROV1 ovarian
# [30] = tested on: MDA-MB-231 breast
# [31] = tested on: KM12 colon
# [32] = tested on: NCI-H226 lung
# [33] = tested on: OVCAR-8 ovarian
# [34] = tested on: TK-10 renal
# [35] = tested on: ACHN renal
# [36] = tested on: 786-0 renal
# [37] = tested on: SF-295 CNS
# [38] = tested on: SK-MEL-5 melanoma
# [39] = tested on: NCI/ADR-RES ovarian
# [40] = tested on: HT29 colon
# [41] = tested on: OVCAR-3 ovarian
# [42] = tested on: NCI-H460 lung
# [43] = tested on: SF-539 CNS
# [44] = tested on: MDA-MB-435
# [45] = tested on: MOLT-4 leukemia
# [46] = tested on: COLO 205 colon
# [47] = tested on: EKVX NSCLC
# [48] = tested on: SN12C renal
# [49] = tested on: SK-MEL-2 melanoma
# [50] = tested on: HS 578T breast
# [51] = tested on: BT-549 breast
# [52] = tested on: K-562 leukemia
# [53] = tested on: UACC-62 melanoma
# [54] = tested on: NCI-H522 lung
# [55] = tested on: MALME-3M melanoma
# [56] = tested on: SNB-19 CNS
# [57] = tested on: A498 renal
# [58] = tested on: UO-31 renal
# [59] = tested on: LOX IMVI melanoma
smiles,measurement,setting,value
Cc1c2ccccc2cc2nc3ccccc3n12,TGI,[1],> 10 µM
same,TGI,[2],> 10 µM
same,TGI,[3],> 10 µM
same,TGI,[4],> 10 µM
same,TGI,[5],> 10 µM
same,TGI,[6],> 10 µM
same,TGI,[7],> 10 µM
same,TGI,[8],> 10 µM
same,TGI,[9],> 10 µM
same,TGI,[10],> 10 µM
same,TGI,[11],> 10 µM
same,TGI,[12],> 10 µM
same,TGI,[13],> 10 µM
same,TGI,[14],> 10 µM
same,TGI,[15],> 10 µM
same,TGI,[16],> 10 µM
same,TGI,[17],> 10 µM
same,TGI,[18],> 10 µM
same,TGI,[19],> 10 µM
same,TGI,[20],> 10 µM
same,TGI,[21],> 10 µM
same,TGI,[22],> 10 µM
same,TGI,[23],> 10 µM
same,TGI,[24],> 10 µM
same,TGI,[25],> 10 µM
same,TGI,[26],> 10 µM
same,TGI,[27],> 10 µM
same,TGI,[28],> 10 µM
same,TGI,[29],> 10 µM
same,TGI,[30],> 10 µM
same,TGI,[31],> 10 µM
same,TGI,[32],> 10 µM
same,TGI,[33],> 10 µM
same,TGI,[34],> 10 µM
same,TGI,[35],> 10 µM
same,TGI,[36],> 10 µM
same,TGI,[37],> 10 µM
same,TGI,[38],> 10 µM
same,TGI,[39],> 10 µM
same,TGI,[40],> 10 µM
same,TGI,[41],> 10 µM
same,TGI,[42],> 10 µM
same,TGI,[43],> 10 µM
same,TGI,[44],> 10 µM
same,TGI,[45],> 10 µM
same,TGI,[46],> 10 µM
same,TGI,[47],> 10 µM
same,TGI,[48],> 10 µM
same,TGI,[49],> 10 µM
same,TGI,[50],> 10 µM
same,TGI,[51],> 10 µM
same,TGI,[52],> 10 µM
same,TGI,[53],> 10 µM
same,TGI,[54],> 10 µM
same,TGI,[55],> 10 µM
same,TGI,[56],> 10 µM
NC1(C(=O)O)CCCC1C(=O)O (stereo not drawn),TGI,[1],> 100 µM
same,TGI,[2],> 100 µM
same,TGI,[3],> 100 µM
same,TGI,[4],> 100 µM
same,TGI,[5],> 100 µM
same,TGI,[6],> 100 µM
same,TGI,[7],> 100 µM
same,TGI,[8],> 100 µM
same,TGI,[9],> 100 µM
same,TGI,[10],> 100 µM
same,TGI,[11],> 100 µM
same,TGI,[12],> 100 µM
same,TGI,[13],> 100 µM
same,TGI,[14],> 100 µM
same,TGI,[15],> 100 µM
same,TGI,[16],> 100 µM
same,TGI,[17],> 100 µM
same,TGI,[18],> 100 µM
same,TGI,[19],> 100 µM
same,TGI,[20],> 100 µM
same,TGI,[22],> 100 µM
same,TGI,[23],> 100 µM
same,TGI,[24],> 100 µM
same,TGI,[25],> 100 µM
same,TGI,[26],> 100 µM
same,TGI,[27],> 100 µM
same,TGI,[28],> 100 µM
same,TGI,[29],> 100 µM
same,TGI,[30],> 100 µM
same,TGI,[31],> 100 µM
same,TGI,[33],> 100 µM
same,TGI,[34],> 100 µM
same,TGI,[35],> 100 µM
same,TGI,[57],> 100 µM
same,TGI,[36],> 100 µM
same,TGI,[37],> 100 µM
same,TGI,[38],> 100 µM
same,TGI,[39],> 100 µM
same,TGI,[40],> 100 µM
same,TGI,[41],> 100 µM
same,TGI,[42],> 100 µM
same,TGI,[43],> 100 µM
same,TGI,[44],> 100 µM
same,TGI,[45],> 100 µM
same,TGI,[46],> 100 µM
same,TGI,[47],> 100 µM
same,TGI,[58],> 100 µM
same,TGI,[48],> 100 µM
same,TGI,[49],> 100 µM
same,TGI,[50],> 100 µM
same,TGI,[51],> 100 µM
same,TGI,[52],> 100 µM
same,TGI,[59],> 100 µM
same,TGI,[53],> 100 µM
same,TGI,[54],> 100 µM
same,TGI,[55],> 100 µM
same,TGI,[56],> 100 µM
